± gives the standard deviation of the averaged measurements.
Legend:
Assay in all cases: level (log10 ratio to DMSO vehicle control); higher = higher biomarker level / cell amount than vehicle control
Conditions in all cases: in DMSO
Heptafluorobutyramide = compound: NC(=O)C(F)(F)C(F)(F)C(F)(F)F [Heptafluorobutyramide]
Protocol: (§1)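 BioMAP Diversity Plus panel of 12 human primary cell co-culture systems (3C, 4H, LPS, SAg, BT, BF4T, BE3C, CASM3C, HDF3CGF, KF3CT, MyoF, Mphg). Compounds were added 1 h before stimulation and left for 24 h (MyoF 48 h; BT 72 h for soluble read-outs or 6 d for IgG). Biomarkers were read by ELISA, cytotoxicity by SRB, PBMC viability and proliferation by Alamar Blue. Each well value was divided by the mean of 8 DMSO control wells on the same plate and log10 transformed; duplicate blinded samples were tested at 4 concentrations.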

[1] = compound: O=C(O)C(F)(F)OC(F)(F)C(F)(F)OC(F)(F)C(=O)O [Perfluoro-3,6-dioxaoctane-1,8-dioic acid]
Protocol: as §1

[2] = compound: C=C(C)C(=O)OCCC(F)(F)C(F)(F)C(F)(F)C(F)(F)C(F)(C(F)(F)F)C(F)(F)F [(Perfluoro-5-methylhexyl)ethyl 2-methylprop-2-enoate]
Protocol: as §1

Perfluoroheptanoic acid = compound: O=C(O)C(F)(F)C(F)(F)C(F)(F)C(F)(F)C(F)(F)C(F)(F)F [Perfluoroheptanoic acid]
Protocol: as §1

[3] = compound: FC(F)(F)C(F)(F)C(F)(F)C(F)(F)C(F)(F)CCI [1-Iodo-1H,1H,2H,2H-perfluoroheptane]
Protocol: as §1

[4] = compound: FC(F)C(F)(F)COCC1CO1 [((2,2,3,3-Tetrafluoropropoxy)methyl)oxirane]
Protocol: as §1

[5] = compound: O=C(O)C(F)(F)C(F)(F)C(F)F [4H-Perfluorobutanoic acid]
Protocol: as §1

Row | Test System | level (log10) (Heptafluorobutyramide; 6700 nM) | level (log10) (Heptafluorobutyramide; 20000 nM) | level (log10) (Heptafluorobutyramide; 60000 nM) | level (log10) ([1]; 6700 nM) | level (log10) ([1]; 20000 nM) | level (log10) ([1]; 60000 nM) | level (log10) ([2]; 6700 nM) | level (log10) ([2]; 20000 nM) | level (log10) (Perfluoroheptanoic acid; 6700 nM) | level (log10) (Perfluoroheptanoic acid; 20000 nM) | level (log10) (Perfluoroheptanoic acid; 60000 nM) | level (log10) ([3]; 6700 nM) | level (log10) ([3]; 20000 nM) | level (log10) ([3]; 60000 nM) | level (log10) ([4]; 6700 nM) | level (log10) ([4]; 20000 nM) | level (log10) ([4]; 60000 nM) | level (log10) ([5]; 6700 nM) | level (log10) ([5]; 20000 nM) | level (log10) ([5]; 60000 nM)
1 | LPS:sPGE2 | -0.0305 ± 0.057 | 0.011 ± 0.0042 | -0.004 ± 0.0071 | -0.0045 ± 0.013 | -0.006 ± 0.011 | 0.0045 ± 0.0078 | -0.038 ± 0.05 | -0.016 ± 0.064 | 0.0295 ± 0.005 | -0.0185 ± 0.022 | -0.0285 ± 0.059 | -0.01 ± 0.042 | -0.0395 ± 0.023 | -0.018 ± 0.0085 | -0.0355 ± 0.032 | -0.022 ± 0.011 | -0.037 ± 0.014 | 0.0025 ± 0.054 | -0.111 ± 0.054 | -0.052 ± 0.013
2 | BE3C:EGFR | -0.008 ± 0.0028 | -0.017 ± 0.011 | 0.004 ± 0.021 | 0.0115 ± 0.015 | 0.005 ± 0.021 | 0.0195 ± 0.077 | -0.0065 ± 0.011 | 0.009 ± 0.014 | -0.0065 ± 0.0078 | 0.0045 ± 0.0021 | -0.0005 ± 0.033 | 0.0195 ± 0.0078 | 0.0085 ± 0.019 | 0.009 ± 0.028 | 0.002 ± 0.0071 | -0.021 ± 0.021 | -0.0145 ± 0.012 | -0.0135 ± 0.011 | -0.0085 ± 0.0064 | 0.032 ± 0.025
3 | SAg:CD40 | -0.031 ± 0.042 | -0.039 ± 0.042 | -0.034 ± 0.068 | 0.015 ± 0.0028 | 0.01 ± 0.0057 | -0.008 ± 0.013 | 0 ± 0.0071 | -0.0275 ± 0.028 | -0.015 ± 0.027 | -0.006 ± 0.0028 | -0.021 ± 0.018 | 0.0015 ± 0.0078 | -0.0095 ± 0.0021 | -0.011 ± 0.011 | -0.0095 ± 0.018 | -0.009 ± 0.0057 | -0.0015 ± 0.0078 | 0 ± 0.0028 | -0.056 ± 0.045 | -0.028 ± 0.044
4 | LPS:CCL2/MCP-1 | 0.0255 ± 0.0035 | 0.0105 ± 0.0078 | 0.0275 ± 0.057 | -0.02 ± 0.023 | -0.011 ± 0.021 | 0.0075 ± 0.036 | 0.009 ± 0.021 | 0.0115 ± 0.028 | -0.0025 ± 0.021 | -0.005 ± 0.0028 | 0.032 ± 0.011 | -0.013 ± 0.013 | -0.013 ± 0.021 | -0.0045 ± 0.021 | 0.006 ± 0.0085 | -0.007 ± 0.0099 | 0.01 ± 0.013 | -0.0195 ± 0.0021 | -0.007 ± 0.0042 | 0.017 ± 0.054
5 | LPS:SRB | -0.0115 ± 0.015 | -0.009 ± 0.0071 | -0.002 ± 0.0071 | 0.007 ± 0.011 | 0.005 ± 0.021 | 0.0115 ± 0.025 | -0.001 ± 0.0028 | -0.0085 ± 0.0021 | -0.019 ± 0.0085 | 0.001 ± 0.0028 | -0.019 ± 0.0099 | -0.006 ± 0.0014 | -0.009 ± 0.014 | -0.005 ± 0.0071 | -0.0145 ± 0.0035 | -0.005 | -0.0105 ± 0.0092 | -0.0045 ± 0.0035 | -0.0105 ± 0.0092 | 0.003
6 | LPS:IL-1alpha | -0.014 ± 0.018 | -0.0125 ± 0.0035 | 0.013 ± 0.054 | -0.032 ± 0.013 | -0.0125 ± 0.013 | 0.0195 ± 0.049 | -0.0515 ± 0.096 | -0.0355 ± 0.023 | -0.002 ± 0.0057 | -0.0265 ± 0.0078 | 0.006 ± 0.047 | 0.023 ± 0.033 | 0.0055 ± 0.022 | 0.0205 ± 0.0064 | -0.046 ± 0.0042 | -0.026 ± 0.021 | 0.022 ± 0.024 | -0.038 ± 0.0071 | -0.02 ± 0.0085 | -0.0065 ± 0.023

Reference: the supplement of paper PMC10331698
